# Source: US8815909B2, “Diaminocyclohexane compounds and uses thereof” (Bristol-Myers Squibb Company, priority 2011, dated 2014)
# Target: T1, human Y4 receptor (Homo sapiens, UniProt P50391)
# T1 construct: expressed in transfected cells
# Experiment: NPY4 cAMP HTRF Agonist Assay (inhibitory cAMP assay, Gi activation by Y4 agonism)
# Format: cell-based
# Conditions: TABLE 2, R2 is Phenyl-CN; read-out: hY4 CAMP EC50
# Procedure, shortened: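 CHO cells stably expressing human Y4, 5000/well, exposed to compound with forskolin and IBMX in PBS for 30 min at room temperature. Gi-mediated inhibition of cAMP then measured by HTRF after 1 h with d2-conjugate and anti-cAMP cryptate.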
# T1 sequence (P50391 whole entry): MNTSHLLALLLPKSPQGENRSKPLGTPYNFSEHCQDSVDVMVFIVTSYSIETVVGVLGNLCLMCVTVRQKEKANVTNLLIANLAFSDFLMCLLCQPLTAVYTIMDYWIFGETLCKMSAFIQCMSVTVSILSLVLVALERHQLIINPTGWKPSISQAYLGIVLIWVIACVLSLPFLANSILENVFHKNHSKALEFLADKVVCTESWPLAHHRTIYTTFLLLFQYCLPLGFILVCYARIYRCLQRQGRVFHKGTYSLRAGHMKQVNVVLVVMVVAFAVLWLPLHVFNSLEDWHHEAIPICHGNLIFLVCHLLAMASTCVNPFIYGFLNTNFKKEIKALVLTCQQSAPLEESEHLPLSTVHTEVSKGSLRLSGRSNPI
row,EC50 [nM],SMILES
1,2,N#Cc1ccc(N2CCC[C@H](N[C@@H]3CCCC[C@H]3Nc3ncc(-c4cccc(C(N)=O)c4)o3)C2)cc1 [Example 265]
2,640,N#Cc1ccc(N2CCC[C@H](N[C@@H]3CCCC[C@H]3Nc3cc(-c4ccc5[nH]ncc5c4)ccn3)C2)cc1 [Example 210]
3,774,N#Cc1ccc(N2CCC[C@H](N[C@@H]3CCCC[C@H]3Nc3cn(-c4ccc(OC(F)(F)F)cc4)nn3)C2)cc1 [Example 202]
4,478,N#Cc1ccc(N2CCC[C@H](N[C@@H]3CCCC[C@H]3Nc3cc(-c4cnc5ccccc5c4)ccn3)C2)cc1 [Example 217]
5,7,N#Cc1ccc(N2C[C@@H]3C[C@H](N[C@@H]4CCCC[C@H]4Nc4ncc(-c5cccc(C(N)=O)c5)o4)[C@H]2C3)cc1 [Example 264]
6,8,C[C@H](O)c1cccc(-c2ccnc(N[C@@H]3CCCC[C@H]3N[C@H]3CCCN(c4ccc(C#N)cc4)C3)c2)c1 [Example 268]
7,378,N#Cc1ccc(N2CCC[C@H](N[C@@H]3CCCC[C@H]3NC3=NOC(c4ccccc4)C3)C2)cc1 (stereo partly drawn) [Example 230]

# Same assay, conditions: TABLE 3, R2 is Phenyl-NO2; read-out: hY4 CAMP EC50
row,EC50 [nM],SMILES
1,163,NC(=O)c1cccc(-c2cc(N[C@@H]3CCCC[C@H]3N[C@H]3C[C@@H]4C[C@H]3N(c3ccc([N+](=O)[O-])cc3)C4)ncn2)c1 [Example 297]

# Same assay, conditions: TABLE 4, R2 is Pyridinyl-CN; read-out: hY4 CAMP EC50
row,EC50 [nM],SMILES
1,15,N#Cc1ccc(N2CCCC(N[C@@H]3CCCC[C@H]3Nc3ncc(-c4ccc(OC(F)(F)F)cc4)o3)C2)nc1 (stereo partly drawn) [Example 315]

# Same assay, conditions: TABLE 5, R2 is Pyridinyl-CF3; read-out: hY4 CAMP EC50
row,EC50 [nM],SMILES
1,2,C[C@]1(N[C@@H]2CCCC[C@H]2Nc2ncc(-c3cccc(C(N)=O)c3)o2)CCCN(c2ccc(C(F)(F)F)nc2)C1 [Example 322]

# Same assay, conditions: human Y4 receptor, cAMP; read-out: hY4 CAMP EC50
row,EC50 [nM],SMILES
1,775,N#Cc1cnc(N2CCC[C@H](N[C@@H]3CCCC[C@H]3Nc3cc(-c4cccc(C(N)=O)c4)ccn3)C2)cn1 [Example 477]
2,323,COc1ccc(-c2ccnc(N[C@@H]3CCCC[C@H]3NC3CCCN(c4ccc(-c5nnc(C)o5)cc4)C3)c2)cc1 (stereo partly drawn) [Example 366]
3,26,Cn1cnc(-c2ccc(N3CCC[C@H](N[C@@H]4CCCC[C@H]4Nc4cc(-c5ccc(F)c(F)c5)ccn4)C3)cc2)n1 [Example 457]
4,329,NC(=O)c1cccc(-c2ccnc(N[C@@H]3CCCC[C@H]3N[C@H]3C[C@@H]4C[C@H]3N(c3cnc(C(F)(F)F)cn3)C4)c2)c1 [Example 471]
5,16,O=C(Nc1cccc(-c2cnc(N[C@@H]3CCCC[C@H]3N[C@H]3CCCN(c4ccc5ncnn5c4)C3)o2)c1)C1CC1 [Example 487]
6,314,Cc1noc(-c2ccc(N3CCC[C@H](N[C@@H]4CCCC[C@H]4Nc4cc(-c5cccc(OC(F)(F)F)c5)ccn4)C3)cc2)n1 [Example 363]
7,129,N#Cc1ncc(N2C[C@@H]3C[C@H](N[C@@H]4CCCC[C@H]4Nc4ncc(-c5cccc(C(N)=O)c5)o4)[C@H]2C3)cn1 [Example 434]
8,161,Fc1ccccc1-c1cnc(N[C@@H]2CCCC[C@H]2N[C@H]2CCCN(c3cnc(C(F)(F)F)nc3)C2)o1 [Example 402]
9,318,Cc1nnc(-c2ccc(N3CCC[C@H](N[C@@H]4CCCC[C@H]4Nc4cc(Br)ccn4)C3)cc2)o1 [Example 352]
10,66,FC(F)(F)c1ncc(N2CCC[C@H](N[C@@H]3CCCC[C@H]3Nc3ncc(-c4ccccc4)o3)C2)cn1 [Example 406]
11,329,NC(=O)c1cccc(-c2cnc(N[C@@H]3CCCC[C@H]3N[C@H]3C[C@@H]4C[C@H]3N(c3cnc(C(F)(F)F)nc3)C4)o2)c1 [Example 407]

# Same assay, conditions: human Y4 stable CHO clonal cells, forskolin + IBMX; read-out: NPY4 cAMP HTRF Agonist Assay EC50
row,EC50 [nM],SMILES
1,185,"FC(F)(F)Oc1ccc(-c2cnc(N[C@@H]3CCCC[C@H]3N[C@H]3CCCN(c4ccc(OC(F)(F)F)cc4)C3)o2)cc1 [Example 87, (1R,2R)—N1-(5-(4-(Trifluoromethoxy)phenyl)oxazol-2-yl)-N2-((S)-1-(4-(trifluoromethoxy)phenyl)piperidin-3-yl)cyclohexane-1,2-diamine]"
2,16,"O=[N+]([O-])c1ccc(N2CCC[C@H](N[C@@H]3CCCC[C@H]3Nc3ncc(-c4ccc(OC(F)(F)F)c(F)c4)o3)C2)cc1 [Example 8, (1R,2R)—N1-(5-(3-Fluoro-4-(trifluoromethoxy)phenyl)oxazol-2-yl)-N2-((S)-1-(4-nitrophenyl)piperidin-3-yl)cyclohexane-1,2-diamine]"
3,704,"FC(F)(F)Oc1ccc(N2CCC[C@H](N[C@@H]3CCCC[C@H]3Nc3nccc(-c4ccccc4)n3)C2)cc1 [Example 88, (1R,2R)—N1-(4-Phenylpyrimidin-2-yl)-N2-((S)-1-(4-(trifluoromethoxy)phenyl)piperidin-3-yl)cyclohexane-1,2-diamine]"
4,69,"O=[N+]([O-])c1ccc(N2CCC[C@H](N[C@@H]3CCCC[C@H]3Nc3cc(-c4ccc(OC(F)(F)F)cc4)ccn3)C2)cc1 [Example 24, (1R,2R)—N1-((S)-1-(4-Nitrophenyl)piperidin-3-yl)-N2-(4-(4-(trifluoromethoxy)phenyl)pyridin-2-yl)cyclohexane-1,2-diamine]"
5,41,"N#Cc1cnc(N2CCC[C@H](N[C@@H]3CCCC[C@H]3Nc3ncc(-c4ccc(OC(F)(F)F)cc4)o3)C2)nc1 [Example 81, 2-((S)-3-((1R,2R)-2-(5-(4-(Trifluoromethoxy)phenyl)oxazol-2-ylamino)cyclohexylamino)piperidin-1-yl)pyrimidine-5-carbonitrile bis-trifluoroacetate]"
6,420,"Fc1cc(N2CCC[C@H](N[C@@H]3CCCC[C@H]3Nc3nccc(-c4ccccc4)n3)C2)ccc1C(F)(F)F [Example 74, (1R,2R)—N1-((S)-1-(3-Fluoro-4-(trifluoromethyl)phenyl)piperidin-3-yl)-N2-(4-phenylpyrimidin-2-yl)cyclohexane-1,2-diamine bis-trifluoroacetate]"
7,45,"N#Cc1ccc(N2CCC[C@H](N[C@@H]3CCCC[C@H]3Nc3ncc(-c4ccccc4)s3)C2)cc1 [Example 42, 4-((S)-3-((1R,2R)-2-(5-Phenylthiazol-2-ylamino)cyclohexylamino)piperidin-1-yl)benzonitrile]"
8,217,"O=[N+]([O-])c1ccc(N2CCC[C@H](N[C@@H]3CCCC[C@H]3Nc3nccc(-c4ccc(OC(F)(F)F)cc4)n3)C2)cc1 [Example 28, (1R,2R)—N1-((S)-1-(4-Nitrophenyl)piperidin-3-yl)-N2-(4-(4-(trifluoromethoxy)phenyl)pyrimidin-2-yl)cyclohexane-1,2-diamine]"
9,515,"N#Cc1ccc(N2CCC[C@H](N[C@@H]3CCCC[C@H]3Nc3cc(/C=C\C(N)=O)ccn3)C2)cc1 [Example 110, (Z)-3-(2-(((1R,2R)-2-(((S)-1-(4-cyanophenyl)piperidin-3-yl)amino)cyclohexyl)amino)pyridin-4-yl)acrylamide]"
10,34,"N#Cc1ccc(N2CCC[C@H](N[C@@H]3CCCC[C@H]3Nc3nccc(-c4ccccc4)n3)C2)cc1F [Example 47, 2-Fluoro-4-((S)-3-((1R,2R)-2-(4-phenylpyrimidin-2-ylamino)cyclohexylamino)piperidin-1-yl)benzonitrile bis-trifluoroacetate]"
11,252,"FC(F)(F)c1ccc(N2CCC[C@H](N[C@@H]3CCCC[C@H]3Nc3cc(-c4ccccc4)ccn3)C2)cc1 [Example 75, (1R,2R)—N1-(4-Phenylpyridin-2-yl)-N2-((S)-1-(4-(trifluoromethyl)phenyl)piperidin-3-yl)cyclohexane-1,2-diamine]"
12,91,"FC(F)(F)Oc1ccc(N2CCC[C@H](N[C@@H]3CCCC[C@H]3Nc3ncc(-c4ccccc4)o3)C2)cc1 [Example 86, (1R,2R)—N1-(5-Phenyloxazol-2-yl)-N2-((S)-1-(4-(trifluoromethoxy)phenyl)piperidin-3-yl)cyclohexane-1,2-diamine]"
13,23,"N#Cc1ccc(N2CCC[C@H](N[C@@H]3CCCC[C@H]3Nc3ncc(-c4ccc(OC(F)(F)F)cc4)o3)C2)cc1 [Example 56, 4-((S)-3-((1R,2R)-2-(5-(4-(Trifluoromethoxy)phenyl)oxazol-2-ylamino)cyclohexylamino)piperidin-1-yl)benzonitrile]"
14,69,"O=[N+]([O-])c1ccc(N2CCC[C@H](N[C@@H]3CCCC[C@H]3Nc3nc4ccccc4o3)C2)cc1 [Example 3, (1R,2R)—N1-(Benzo[d]oxazol-2-yl)-N2-((S)-1-(4-nitrophenyl)piperidin-3-yl)cyclohexane-1,2-diamine]"
15,3,"COC(=O)Nc1cccc(-c2cnc(N[C@@H]3CCCC[C@H]3N[C@H]3CCCN(c4ccc(C(F)(F)F)cc4)C3)o2)c1 [Example 100, Methyl (3-(2-((1R,2R)-2(S)-1-(4-trifluoromethyl)phenylpiperidin-3-ylamino)cyclohexylamino)oxazol-5-yl)phenylcarbamate]"
16,1,"C[C@]1(N[C@@H]2CCCC[C@H]2Nc2ncc(-c3ccc(OC(F)(F)F)cc3)o2)CCCN(c2ccc([N+](=O)[O-])cc2)C1 [Example 96, (1R,2R)—N1-((S)-3-Methyl-1-(4-nitrophenyl)piperidin-3-yl)-N2-(5-(4-(trifluoromethoxy)phenyl)oxazol-2-yl)cyclohexane-1,2-diamine bis-trifluoroacetate]"

# Same assay, conditions: second TABLE 1, R2 is Phenyl-CF3; read-out: hY4 CAMP EC50
row,EC50 [nM],SMILES
1,48,CC(C)(O)c1cccc(-c2cnc(N[C@@H]3CCCC[C@H]3N[C@H]3CCCN(c4ccc(C(F)(F)F)cc4)C3)o2)c1 [Example 170]
2,809,FC(F)(F)c1ccc(N2CCC[C@H](N[C@@H]3CCCC[C@H]3Nc3ncc(Cl)cn3)C2)cc1 [Example 196]
3,606,N#Cc1ccnc(N[C@@H]2CCCC[C@H]2N[C@H]2CCCN(c3ccc(C(F)(F)F)cc3)C2)n1 [Example 194]
4,218,CCCC#Cc1ccnc(N[C@@H]2CCCC[C@H]2N[C@H]2CCCN(c3ccc(C(F)(F)F)cc3)C2)c1 [Example 185]
5,11,CC(C)NC(=O)c1cccc(-c2cnc(N[C@@H]3CCCC[C@H]3N[C@H]3CCCN(c4ccc(C(F)(F)F)cc4)C3)o2)c1 [Example 125]
